Molecules are shown by their SMILES.

Broadly, the EC50 is the midpoint of the concentration-response curve. The low end stands for greater potency, the high end for weaker potency.

Test [1] has as its target Probable G-protein coupled receptor 27 (Homo sapiens, UniProt Q9NS67). As to the kind of experiment: Agonist activity at CLuc-tagged human GPR27 expressed in HEK293 cells incubated for 10 mins by beta-arrestin 2 recruitment based firefly luciferase complementation assay.
Test [2] has as its target T1, GPR27-V2 (Homo sapiens, UniProt P30518+Q9NS67). As to the kind of experiment: Agonist activity at CLuc-tagged human GPR27-V2 expressed in HEK293 cells incubated for 10 mins by beta-arrestin 2 recruitment based firefly luciferase complementation assay.
Test [3] concerns the target T1, GPR27-V2. As to the kind of experiment: Agonist activity at CLuc-tagged human GPR27-V2 expressed in HEK293 cells incubated overnight by beta-arrestin 2 recruitment based firefly luciferase complementation assay. Background: Recruitment of arrestin is a read-out of receptor activation apart from second messengers.

T1 sequence (P30518 whole entry): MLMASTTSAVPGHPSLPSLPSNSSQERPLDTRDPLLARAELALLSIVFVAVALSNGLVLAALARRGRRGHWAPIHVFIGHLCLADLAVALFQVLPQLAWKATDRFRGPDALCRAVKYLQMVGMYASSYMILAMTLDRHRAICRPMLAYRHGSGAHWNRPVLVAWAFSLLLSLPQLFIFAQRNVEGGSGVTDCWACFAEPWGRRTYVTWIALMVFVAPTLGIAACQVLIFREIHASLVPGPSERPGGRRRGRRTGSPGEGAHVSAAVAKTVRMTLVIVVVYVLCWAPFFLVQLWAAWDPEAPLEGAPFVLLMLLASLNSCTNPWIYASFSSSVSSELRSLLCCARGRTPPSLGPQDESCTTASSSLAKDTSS
T1 sequence (Q9NS67 whole entry): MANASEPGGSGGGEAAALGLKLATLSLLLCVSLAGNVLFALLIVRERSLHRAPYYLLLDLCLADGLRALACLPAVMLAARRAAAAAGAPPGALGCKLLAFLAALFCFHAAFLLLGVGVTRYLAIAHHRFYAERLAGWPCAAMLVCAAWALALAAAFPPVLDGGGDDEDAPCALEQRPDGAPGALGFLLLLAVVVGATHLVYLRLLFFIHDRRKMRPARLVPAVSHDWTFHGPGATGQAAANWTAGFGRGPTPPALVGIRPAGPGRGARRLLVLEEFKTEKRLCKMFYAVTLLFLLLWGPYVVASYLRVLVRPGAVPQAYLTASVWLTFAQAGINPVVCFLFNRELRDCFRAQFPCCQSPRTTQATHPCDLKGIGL
Sequence of Probable G-protein coupled receptor 27 (Q9NS67 whole entry): as above

`Cc1cc(C(=O)Nc2ccc(S(=O)(=O)Nc3ccccc3)cc2)c(Cl)cc1Cl` had a 50% effective concentration (EC50) in test [1] of 0.372 µM.

As to `O=C(Nc1ccc(S(=O)(=O)Nc2ccccc2)cc1)c1ccc(Cl)cc1OC(F)(F)F`, the results for the concentration for a half-maximal effect (EC50) (at GPR27-V2 [2]; in test [1]) were 0.195 µM and above 31.6 µM, respectively.

Turning to `Cc1cc(C(=O)Nc2ccc(S(=O)(=O)Nc3ccccc3)cc2)c(F)cc1Br`, it took 2.14 µM to reach a half-maximal effect in test [1] (EC50).

With `CN(C)S(=O)(=O)c1ccc(NC(=O)c2ccc(Cl)cc2Cl)cc1`, the EC50 on GPR27-V2 [2] was above 100 µM.

Regarding `N#Cc1cc(Cl)c(C(=O)Nc2ccc(S(=O)(=O)Nc3ccccc3)cc2)c(Cl)c1`, the EC50 in test [1] was above 31.6 µM.

Turning to `Cc1nnc(NS(=O)(=O)c2ccc(NC(=O)c3ccc(Cl)cc3Cl)cc2)s1`, the EC50 on GPR27-V2 [2] was above 100 µM.

`NS(=O)(=O)c1ccc(NC(=O)c2ccc(Br)cc2Br)cc1` registered an EC50 at GPR27-V2 [2] above 100 µM.

Turning to `O=C(Nc1ccc(S(=O)(=O)Nc2ccccc2)cc1)c1ccc(C(F)(F)F)cc1C(F)(F)F`, the EC50 at GPR27-V2 [2] was 0.55 µM; in test [1] it was above 31.6 µM.

Consider `COc1cc(Cl)ccc1C(=O)Nc1ccc(S(=O)(=O)Nc2ccccc2)cc1`, for which the EC50 on GPR27-V2 [2] was 0.977 µM; in test [1], 0.204 µM.

As for `CC(=O)NS(=O)(=O)c1ccc(NC(=O)c2ccc(Cl)cc2Cl)cc1`, the EC50 at GPR27-V2 [2] is above 100 µM.

As to `CNS(=O)(=O)c1ccc(NC(=O)c2ccc(Br)cc2Br)cc1`, the EC50 at GPR27-V2 [2] was above 100 µM.

`O=C(Nc1ccc(S(=O)(=O)Nc2ccccc2)cc1)c1cc(Cl)c(Cl)cc1Cl`: the half-maximal effective concentration (EC50) in test [1] was 0.589 µM.

Take `Cc1onc(NS(=O)(=O)c2ccc(NC(=O)c3ccc(Cl)cc3Cl)cc2)c1C`: the EC50 at GPR27-V2 [2] is above 100 µM.

In turn, `Cc1cc(Cl)c(C(=O)Nc2ccc(S(=O)(=O)Nc3ccccc3)cc2)cc1F` came in with an EC50 in test [1] above 31.6 µM.

For `COc1ccc(C(=O)Nc2ccc(S(=O)(=O)Nc3ccccc3)cc2)c(C)c1`, the EC50 at GPR27-V2 [2] was above 100 µM; in test [1] it was above 31.6 µM.

As for `O=C(/C=C/c1ccc(Cl)cc1Cl)Nc1ccc(S(=O)(=O)Nc2ccccc2)cc1`, on GPR27-V2 [2], the EC50 is above 100 µM.

In turn, `Cc1cc(Cl)c(C(=O)Nc2ccc(S(=O)(=O)Nc3ccccc3)cc2)cc1Cl` gave an EC50 in test [1] of 0.363 µM.

Turning to `COc1ccc(C(=O)Nc2ccc(S(=O)(=O)Nc3ccccc3)cc2)c(Cl)c1`, the EC50 on GPR27-V2 [2] was 8.13 µM; in test [1] it was above 31.6 µM.

`O=C(Nc1ccc(S(=O)(=O)Nc2ccccc2)cc1)c1c(Cl)cc(Cl)cc1Cl` had an EC50 in test [1] above 31.6 µM.

With `O=C(Nc1ccc(S(=O)(=O)Nc2ccccc2)cc1)c1ccc(Br)cc1Br`, the EC50 on GPR27-V2 [2] is 3.24 µM; in test [1], 1.23 µM.

As for `CS(=O)(=O)c1ccc(NC(=O)c2ccc(Cl)cc2Cl)cc1`, the EC50 on GPR27-V2 [2] was 38 µM.

`Cc1cc(NS(=O)(=O)c2ccc(NC(=O)c3ccc(Cl)cc3Cl)cc2)no1` showed an EC50 on GPR27-V2 [2] above 100 µM.

Regarding `O=C(Nc1ccc(S(=O)(=O)Nc2ccccc2)cc1)c1ccc(F)cc1F`, the values for the EC50 (on GPR27-V2 [2]; in test [1]) were 3.89 µM and 0.447 µM, respectively.

In test [1], `O=C(Nc1ccc(S(=O)(=O)Nc2ccccc2)cc1)c1cc2ccccc2cc1Cl` showed an EC50 of 0.955 µM.

Take `O=C(Nc1ccc(S(=O)(=O)Nc2ccccc2)cc1)c1ccc(Cl)cc1Cl`: the half-maximal effective concentration (EC50) on GPR27-V2 [2] is 7.41 µM; in test [1] it was 6.61 µM; on GPR27-V2 [3], 0.417 µM.

Consider `O=C(Nc1ccc(S(=O)(=O)Nc2ccccc2)cc1)c1ccc(C(F)(F)F)cc1Br`, for which the results for the EC50 (on GPR27-V2 [2]; in test [1]) were 6.92 µM and 0.245 µM, respectively.

`O=C(Nc1ccc(S(=O)(=O)O)cc1)c1ccc(Cl)cc1Cl` came in with an EC50 at GPR27-V2 [2] above 100 µM.

For the molecule `N#Cc1ccc(C(=O)Nc2ccc(S(=O)(=O)Nc3ccccc3)cc2)c(Cl)c1`, the EC50 at GPR27-V2 [2] is 5.89 µM; in test [1] it was 0.977 µM.

For `Cc1cc(Cl)c(Cl)cc1C(=O)Nc1ccc(S(=O)(=O)Nc2ccccc2)cc1`, the EC50 in test [1] is 0.263 µM.

For `Cc1cc(C(=O)Nc2ccc(S(=O)(=O)Nc3ccccc3)cc2)c(C)cc1Cl`, the EC50 in test [1] was 0.275 µM.

As for `O=C(Nc1ccc(S(=O)(=O)Nc2cnc3ccccc3n2)cc1)c1ccc(Cl)cc1Cl`, at GPR27-V2 [2], the EC50 is above 100 µM.

Molecule `Cc1cc(C(=O)Nc2ccc(S(=O)(=O)Nc3ccccc3)cc2)c(C)cc1Br` gave a 50% effective concentration (EC50) in test [1] of 0.126 µM.

In turn, `O=C(Nc1ccc(S(=O)(=O)Nc2nccs2)cc1)c1ccc(Cl)cc1Cl` showed an EC50 on GPR27-V2 [3] of 0.661 µM.

With `O=C(Nc1ccc(S(=O)(=O)Nc2ccccc2)cc1)c1ccc(C(F)(F)F)cc1Cl`, the values for the EC50 (at GPR27-V2 [2]; in test [1]) were 3.89 µM and 6.76 µM, respectively.

In turn, `O=C(Nc1ccc(S(=O)(=O)Nc2ccccc2)cc1)c1ccc(Cl)c(Cl)c1Cl` had an EC50 in test [1] of 0.631 µM.

In test [1], `O=C(Nc1ccc(S(=O)(=O)Nc2ccccc2)cc1)c1cc(F)c(Cl)cc1Cl` showed an EC50 of 0.38 µM.

`Cc1cc(Br)c(F)cc1C(=O)Nc1ccc(S(=O)(=O)Nc2ccccc2)cc1` had a concentration giving a half-maximal response (EC50) in test [1] of 0.562 µM.

Values taken from ChEMBL document CHEMBL5375984, “Development of Ligands for the Super Conserved Orphan G Protein-Coupled Receptor GPR27 with Improved Efficacy and Potency” (J Med Chem, 2023).
